Data published in patent US20240148821A1, “PHARMACEUTICAL USE OF CYCLIC PEPTIDE COMPOUND” (CHUGAI SEIYAKU KABUSHIKI KAISHA, priority 2021, published 2024).
Numbered stars: 1 amine (or outer) side, 2 acyl side, 3 side chain; on linkers, the order of the positions; unused ones are H or OH. Bridge positions count the residues as written; N and C are the ends. Square brackets hold non-standard residues; d marks the D form. Peptide text beside a SMILES is read from it. * marks the point of attachment. hPhe(3,5-F2-4-CF3) = N[C@@H](CCc1cc(F)c(C(F)(F)F)c(F)c1)C(=O)O; hPhe(3-Cl-4-CF3) = N[C@@H](CCc1ccc(C(F)(F)F)c(Cl)c1)C(=O)O; hPhe(3-F,4-CF3) = N[C@@H](CCc1ccc(C(F)(F)F)c(F)c1)C(=O)O; Pro(trans-4-Ph) = O=C(O)[C@@H]1C[C@@H](c2ccccc2)CN1; NEtPhe(4-Me) = CCN[C@@H](Cc1ccc(C)cc1)C(=O)O; NMePhe(4-Me) = CN[C@@H](Cc1ccc(C)cc1)C(=O)O; NMeAla(cPent) = CN[C@@H](CC1CCCC1)C(=O)O; NMeGly(cPent) = CN[C@H](C(=O)O)C1CCCC1; NMeCha = CN[C@@H](CC1CCCCC1)C(=O)O; X81 = O=C(CN(CCOCC(F)F)[*:1])[*:2]; NMeChg = CN[C@H](C(=O)O)C1CCCCC1; NMeI = CC[C@H](C)[C@H](NC)C(=O)O; NMeD = CN[C@@H](CC(=O)O)C(=O)O; NMeL = CN[C@@H](CC(C)C)C(=O)O; NMeNva = CCC[C@H](NC)C(=O)O; NMeV = CN[C@H](C(=O)O)C(C)C; d(β3hA) = C[C@@H](N)CC(=O)O; Morpholide = C1CN(*)CCO1; NMeA = CN[C@@H](C)C(=O)O; Piperidide = C1CCN(*)CC1; Pyrrolidide = C1CCN(*)C1; dNMeA = CN[C@H](C)C(=O)O; Ac5c = NC1(C(=O)O)CCCC1; Aze = O=C(O)[C@@H]1CCN1; Sar = CNCC(=O)O

Target: protein-protein interaction between Kras and SOS1 (biotin-tagged human Kras loaded with GDP, His-tagged human SOS1) (Homo sapiens (Human), UniProt P01116, G12D)
Assay: Protein-protein interaction inhibition between Kras and SOS1 (KrasG12D-SOS PPI) using AlphaScreen;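 further: kras produced in E. coli, Ni-coupled donor beads and streptavidin acceptor beads, excitation 680 nm with emission detected at 520–620 nm via singlet oxygen transfer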
Type: biochemical
Settings: AlphaScreen; biotin-tagged human Kras loaded with GDP, His-tagged human SOS1; read-out: KRAS G12D-SOS PPI IC50

Question: With `CC[C@H](C)[C@@H]1NC(=O)[C@H](CC(C)C)N(C)C(=O)C[C@@H](C(=O)N2CCOCC2)N(C)C(=O)[C@H]([C@@H](C)CC)N(C)C(=O)C2(CCCC2)NC(=O)[C@@H]2CCCN2C(=O)[C@H](CCc2cc(F)c(C(F)(F)F)c(F)c2)NC(=O)CN(C)C(=O)[C@H](Cc2ccc(C)cc2)N(CC)C(=O)[C@@H]2CCN2C(=O)[C@H](C)N(C)C1=O` [Compound 1209] ([NMeL]I[NMeA][Aze][NEtPhe(4-Me)][Sar][hPhe(3,5-F2-4-CF3)]P[Ac5c][NMeI][NMeD]-Morpholide; lactam N-11) as the compound, how does the IC50 read?
Answer: 0.85 nM

Question: With `CC[C@H](C)[C@@H]1NC(=O)[C@H](CC(C)C)N(C)C(=O)C[C@@H](C(=O)N2CCCCC2)N(C)C(=O)[C@H](C2CCCCC2)N(C)C(=O)C2(CCCC2)NC(=O)[C@@H]2C[C@@H](c3ccccc3)CN2C(=O)[C@H](CCc2ccc(C(F)(F)F)c(Cl)c2)NC(=O)CN(C)C(=O)[C@H](CC2CCCCC2)N(C)C(=O)CN(C)C(=O)CN(C)C1=O` [Compound 90] ([NMeL]I[Sar][Sar][NMeCha][Sar][hPhe(3-Cl-4-CF3)][Pro(trans-4-Ph)][Ac5c][NMeChg][NMeD]-Piperidide; lactam N-11) as the compound, how does the IC50 read?
Answer: 5 nM

Question: Which IC50 does the source give for `CC[C@H](C)[C@@H]1NC(=O)[C@H](CC2CCCC2)N(C)C(=O)C[C@@H](C(=O)N2CCCCC2)N(C)C(=O)[C@H](C(C)C)N(C)C(=O)C2(CCCC2)NC(=O)[C@@H]2CCCN2C(=O)[C@H](CCc2ccc(C(F)(F)F)c(Cl)c2)NC(=O)CN(C)C(=O)[C@H](CC2CCCCC2)N(C)C(=O)[C@@H]2CCN2C(=O)[C@H](C)N(C)C1=O` [Compound 37] ([NMeAla(cPent)]I[NMeA][Aze][NMeCha][Sar][hPhe(3-Cl-4-CF3)]P[Ac5c][NMeV][NMeD]-Piperidide; lactam N-11) here?
Answer: 17 nM

Question: With `CC[C@H](C)[C@@H]1NC(=O)[C@H](CC(C)C)N(C)C(=O)C[C@@H](C)NC(=O)[C@H](C2CCCC2)N(C)C(=O)C2(CCCC2)NC(=O)[C@@H]2CCCN2C(=O)[C@H](CCc2ccc(C(F)(F)F)c(Cl)c2)NC(=O)[C@@H](C)N(C)C(=O)[C@H](Cc2ccc(C)cc2)N(C)C(=O)[C@@H]2CCN2C(=O)[C@H](C)N(C)C1=O` [Compound 1504] (cyclo([Ac5c][NMeGly(cPent)][d(β3hA)][NMeL]I[NMeA][Aze][NMePhe(4-Me)][dNMeA][hPhe(3-Cl-4-CF3)]P)) as the compound, how does the IC50 read?
Answer: 57 nM

Question: With `CCC[C@H]1C(=O)N[C@@H]([C@@H](C)CC)C(=O)N(C)[C@@H](C)C(=O)N2CC[C@H]2C(=O)N(C)[C@@H](CC2CCCCC2)C(=O)N(C)CC(=O)N[C@@H](CCc2ccc(C(F)(F)F)c(Cl)c2)C(=O)N2CCC[C@H]2C(=O)NC2(CCCC2)C(=O)N(C)[C@@H](C(C)C)C(=O)N[C@H](C)CC(=O)N1C` [Compound 1564] (cyclo([Ac5c][NMeV][d(β3hA)][NMeNva]I[NMeA][Aze][NMeCha][Sar][hPhe(3-Cl-4-CF3)]P)) as the compound, how does the IC50 read?
Answer: 38 nM

Question: How did the IC50 turn out when `CC[C@H](C)[C@@H]1NC(=O)[C@H](CC(C)C)N(C)C(=O)C[C@@H](C(=O)N2CCCCC2)N(C)C(=O)[C@H](C(C)C)N(C)C(=O)C2(CCCC2)NC(=O)[C@@H]2CCCN2C(=O)[C@H](CCc2ccc(C(F)(F)F)c(Cl)c2)NC(=O)CN(C)C(=O)[C@H](Cc2ccc(C)cc2)N(C)C(=O)[C@@H]2CCN2C(=O)[C@H](C)N(C)C1=O` [Compound 1828] ([NMeL]I[NMeA][Aze][NMePhe(4-Me)][Sar][hPhe(3-Cl-4-CF3)]P[Ac5c][NMeV][NMeD]-Piperidide; lactam N-11) was run?
Answer: 2.7 nM

Question: Which IC50 does the source give for `CC[C@H](C)[C@@H]1NC(=O)[C@H](CC(C)C)N(C)C(=O)C[C@@H](C(=O)N2CCCCC2)N(C)C(=O)[C@H](C2CCCCC2)N(C)C(=O)C2(CCCC2)NC(=O)CN(CCOCC(F)F)C(=O)[C@H](CCc2ccc(C(F)(F)F)c(Cl)c2)NC(=O)CN(C)C(=O)[C@H](CC2CCCCC2)N(C)C(=O)CN(C)C(=O)CN(C)C1=O` [Compound 2036] ([NMeL]I[Sar][Sar][NMeCha][Sar][hPhe(3-Cl-4-CF3)][X81][Ac5c][NMeChg][NMeD]-Piperidide; lactam N-11 (inferred); C-terminus assumed) here?
Answer: 1.1 nM

Question: Which IC50 does the source give for `CC[C@H](C)[C@@H]1NC(=O)[C@H](CC(C)C)N(C)C(=O)C[C@@H](C(=O)N2CCCC2)N(C)C(=O)[C@H]([C@@H](C)CC)N(C)C(=O)C2(CCCC2)NC(=O)[C@@H]2CCCN2C(=O)[C@H](CCc2ccc(C(F)(F)F)c(F)c2)NC(=O)CN(C)C(=O)[C@H](Cc2ccc(C)cc2)N(C)C(=O)[C@@H]2CCN2C(=O)[C@H](C)N(C)C1=O` [Compound 44] ([NMeL]I[NMeA][Aze][NMePhe(4-Me)][Sar][hPhe(3-F,4-CF3)]P[Ac5c][NMeI][NMeD]-Pyrrolidide; lactam N-11) here?
Answer: 1.1 nM

Tested on: Human pancreatic cancer cell line AsPC-1 (G12D mutation Kras)
Assay: AsPC-1 cell growth inhibition (AsPC-1 CGI)
Type: cell-based
Settings: read-out: AsPC-1 cell growth inhibition, 50% growth inhibitory concentration (IC50 value); 96 hours, CellTiter-Glo, values classified in ranges
Method: Test compounds were serially dilated with dimethyl sulfoxide, and 200 nL was then dispensed to a U-bottom 96-well plate using Labcyte Echo. […] The cell suspension was dispensed to a. plate containing a test compound at 100 μL per well and incubated at 37° C. in a 5% carbon dioxide gas incubator. 96 hours later, 80 μL of CellTiter-Glo (Promega) was added to each well and fluorescence was measured.

Question: With `CC[C@H](C)[C@@H]1NC(=O)[C@H](CC(C)C)N(C)C(=O)C[C@@H](C(=O)N2CCOCC2)N(C)C(=O)[C@H]([C@@H](C)CC)N(C)C(=O)C2(CCCC2)NC(=O)[C@@H]2CCCN2C(=O)[C@H](CCc2cc(F)c(C(F)(F)F)c(F)c2)NC(=O)CN(C)C(=O)[C@H](Cc2ccc(C)cc2)N(CC)C(=O)[C@@H]2CCN2C(=O)[C@H](C)N(C)C1=O` [Compound 1209] ([NMeL]I[NMeA][Aze][NEtPhe(4-Me)][Sar][hPhe(3,5-F2-4-CF3)]P[Ac5c][NMeI][NMeD]-Morpholide; lactam N-11) as the compound, how does the IC50 read?
Answer: ≤ 20 nM
